From patent US8592421B2, “Cyclic bioisosters of purine system derivatives and a pharmaceutical composition based thereon” (priority 2003, dated 2013)

Key:
[1] = test system: synthase of nitrogen oxide (NOC); assay: Morphine abstinence model: activity of synthase of nitrogen oxide (NOC), radiometric [3H]L-citrulline method; format: in vivo, rats Wistar; details: morphinized rats (FIG. 13)
[2] = test system: Ca^2+-dependent isoform NOC; assay: Morphine abstinence model: calcium-dependent NOC in liver; format: in vivo, rats Wistar; details: administration of morphine (FIG. 13)
[3] = test system: Ca^2+-independent isoform NOC; assay: Morphine abstinence model: calcium-independent NOC in liver; format: in vivo, rats Wistar; details: administration of morphine (FIG. 13)
[4] = Morphine abstinence model: thymus condition (mass, nitrites); format: in vivo, rats; details: Administration of morphine; control 230 ± 14
Excerpt: The spectrometric method is based the reaction of nitrites with the Griss reagent (a mixture of 2% solution of sulfanilamide and 0.2% N-(1-naphthyl)ethylene diamine. At the first step the nitrite reacts with sulfanilamide with formation of diazonium salt, and then with the second component to form azo dye with an adsorption maximum at 540 nm. For reduction of nitrates into nitrites, a fermentative method was used with bacterial reductase nitrate (Grisham M. B. et al., 1995). The samples of plasma and supernathant of the liver deproteinizated at 100° C. for 5 minutes incubated for 30 minutes at 37° C. in 50.0 mM of HEPES pH 7.4 in the presence of 0.2 unit/ml of Aspergillus reductase nitrate, 5.0 mkM of FAD and 0.1 mM of NAD-Ph. At the end of the reaction lactate dehydrogenase and pyruvate were added for isolation of NAD-Ph interfering with the Griss reaction. Then the Griss reagent was added and after 10-minute incubation the light absorption of the samples was measured at 540 nm. To amount of NOX^− was calculated using sodium nitrate as a standard.
The effect of the compounds according to the invention on the condition of the thymus of the rats was also investigated: a control group, an experimental group of morphinized animals and an experimental group of animals were first morphinized and then injected with the compounds according to the invention. The experiment was carried out similarly to that described above.

CN1CC[C@]23c4c5ccc(O)c4O[C@H]2[C@@H](O)C=C[C@H]3[C@H]1C5 [Morphine, morphine, reference compound]
total NOC activity in the liver compared to the control [1]: did not change
activity of the calcium-dependent form NOC in the liver [2]: rise of activity
activity of the calcium-independent form NOC in the liver [3]: decrease of activity
Thymus mass [4]: 145 ± 9 mg
